pIC50: −log10 of the molar value. “Also recorded” adds a separate entry of the source.
Experiments:
[1] = tested on: WT tracheal rings; experiment: Isoproterenol-induced relaxation of WT tracheal rings on a myograph; format: cell-based, murine; settings: rottlerin compared to PBS
Procedure: (n=4 each). Asterisk (*) indicates P<0.05 versus vehicle (DMSO). […] Cumulative dose-response curves of WT tracheal rings to isoproterenol in the absence and presence of 100 nM iberiotoxin (IbTX), a specific BK channel inhibitor. Values in graphs are means±standard deviation.
In this experiment, murine tracheal smooth muscle cells were acutely isolated and whole cell patch clamped as previously described (Zakharov, S. et al., (2005) J Biol Chem 280, 30882-30887).
To dissect which (or both) β-AR pathways are responsible for the effects, tracheal rings were pre-incubated with either β1-AR antagonist (CGP 20712A; 100 nM) or a β2-AR antagonist (ICI 118551; 100 nM) or vehicle (DMSO). […] To confirm that the isoproterenol-induced relaxation was dependent upon BK channel-induced hyperpolarization, IbTX, a specific inhibitor of the BK channel, was used.

[2] = tested on: OVA-sensitized mice; experiment: OVA induced acute asthma model, repeated i.p. rottlerin
Procedure: In this example, the acute asthma model in ovalbumin (OVA) treated mice was used (Jia, Y., R. Foronjy, and J. D'Armiento, Altered airway inflammatory response to cigarette smoke in ovalbumin-sensitized mice. Am J. Resp and Critical Care Medicine (2006) p. Suppl:A339.). […] Mice received an intraperitoneal injection (i.p) of 100 μg ovalbumin adsorbed to 2 mg aluminum (200 μl final volume) on day 0 and again on day 7. Control mice were injected with endotoxin free PBS. On alternative days 14-22, mice received a 20 minute aerosol challenge of either endotoxin-free PBS (controls) or 2% (w/v) OVA in endotoxin-PBS, using a lumiscope 6610 ultrasonic nebulizer (Lumiscope, East Rutherford, N.J.).
Two days after the last aerosol challenge, AHR was measured by invasive restrained whole body plethysmography (rWBP) (BUXCO Electronics Inc., Troy, N.Y.) in response to inhaled methacholine (Sigma, St. Louis, Mo.). For dynamic lung resistance, measurements were performed using the PLY3011 chamber (BUXCO). Mice were anesthetized with a cocktail of 25 mg per kg body weight ketamine hydrochloride (Bioniche Pharma, Lake Forest, Ill.) and 2.5 mg per kg body weight xylazine (Llyod Laboratories, Inc., Barangay Tikay, Malolos Bulacan, Philippines), tracheotomized, and immediately intubated with an 18-gauge catheter, followed by mechanical ventilation (Columbus Instruments International, Columbus, Ohio). Respiratory frequency was set at 150 breaths/minute with a tidal volume of 0.2 ml. Increasing concentrations of methacholine (0-50 mg/ml) were administered at the rate of 20 puffs per 10 seconds, with each puff of aerosol delivery lasting 10 ms, via a nebulizer aerosol system with a 4-6 μm aerosol particle size generated by a nebulizer head (Aeroneb®, Aerogen Ltd., Dangan, Galway, Ireland). The nebulizer is attached to a small aerosol block, which is placed in the inspiratory flow line. In this way the aerosol is injected directly into the airway. Baseline resistance was restored before administration of the subsequent doses of methacholine. The flow and pressure signals were measured and processed together to determine resistance and compliance using a software analyzer provided in BioSystem XA software (BUXCO Electronics Inc., Troy, N.Y.).
After measurement of airway responsiveness in vivo, mice were sacrificed and their serum collected and stored at −80° C. until analysis. Serum levels of OVA-specific IgE were measured by sandwich ELISA as described previously (Kanamaru, F., et al. “Costimulation via Glucocorticoid-Induced TNF Receptor in Both Conventional and CD25^+ Regulatory CD4^+ T Cells.” J Immunol., Vol. 172, pages 7306-7314 (2004)).
Bronchoalveolar lavage (BAL) was performed by injection of 1 ml saline (37° C.) through a tracheal cannula into the lung. Cells in the BAL were centrifuged and resuspended in cold PBS. For differential BAL cell counts, cytospin preparations were made and per cytospin, 200 cells were counted and differentiated by standard morphology and staining characteristics.
IL-4, IL-5 and IL-13 ELISAs were performed according to the manufacturer's instructions (R & D systems, Minneapolis, Minn.). The detection limits of the ELISAs were 60 pg/ml for IL-4, 32 pg/ml for IL-5, 15 pg/ml IL-13.
In this system mice are anesthetized and ventilated and through a cannula in the trachea, tracheal pressure and flow are continuously monitored and traditional pulmonary mechanics can be measured. This system is preferable over the method of oscillatory mechanics due to the consistency of measurements and the ability to directly measure pressure and flow. Changes in pressure, flow, and volume were recorded, and RL was calculated from peak values after each challenge (FIG. 14A).
After determining the airway hyperresponsiveness, lungs were lavaged with PBS and total cell count with differential was determined on the bronchoalveolar cells (BAL).

[3] = tested on: OVA-sensitized mice; experiment: OVA-asthma model, single i.v. dose before airway resistance measurement; format: in vivo
Procedure: Groups of mice received an I.P. injection of OVA/Alum complex on days 0 and 7 and on alternate days 14-22, a 20 minute aerosol challenge of either PBS or 2% (w/v) OVA in PBS, using an ultrasonic nebulizer (FIG. 22A).

[4] = molecular target: PKCα (Homo sapiens, UniProt P17252); settings: rottlerin 20 μM, 0.1 mM ATP, phosphatidylserine; cited from earlier work
[5] = molecular target: Akt (Homo sapiens, UniProt P31749); settings: 20 μM; cited from earlier work
[6] = tested on: 3T3-L1 adipocytes; settings: read-out: IC50 of insulin-induced glucose uptake; cited from earlier work
[7] = tested on: mitochondria in intact cells; settings: cited from earlier work
[8] = tested on: CD4+ and CD8+ human T lymphocyte; settings: dose-dependent; cited from earlier work
[9] = tested on: canine subarachnoid hemorrhage model; settings: 5 μM injected into the cistera magna; cited from earlier work
[10] = tested on: OVA-challenged animals; settings: in vivo; cited from earlier work
[11] = tested on: guinea pigs; settings: 10-20 mg/kg/day×6 days; cited from earlier work

Chain of Akt (P31749 whole entry): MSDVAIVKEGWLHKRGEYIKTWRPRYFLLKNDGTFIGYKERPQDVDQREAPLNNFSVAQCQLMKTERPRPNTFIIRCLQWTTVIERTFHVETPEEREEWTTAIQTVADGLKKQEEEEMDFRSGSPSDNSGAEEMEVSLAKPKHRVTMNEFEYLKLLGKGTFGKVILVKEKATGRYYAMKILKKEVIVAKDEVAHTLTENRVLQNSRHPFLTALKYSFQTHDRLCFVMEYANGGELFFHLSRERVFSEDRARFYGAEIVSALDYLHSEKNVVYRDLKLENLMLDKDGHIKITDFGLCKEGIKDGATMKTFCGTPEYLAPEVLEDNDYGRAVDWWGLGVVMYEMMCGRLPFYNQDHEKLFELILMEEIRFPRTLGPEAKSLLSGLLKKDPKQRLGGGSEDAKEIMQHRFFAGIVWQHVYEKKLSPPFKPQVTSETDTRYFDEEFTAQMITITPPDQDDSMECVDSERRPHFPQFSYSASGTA

SMILES: CC(=O)c1c(O)c(C)c(O)c(Cc2c(O)c3c(c(C(=O)/C=C/c4ccccc4)c2O)OC(C)(C)C=C3)c1O [rottlerin, 5,7-dihydroxy-2,2-dimethyl-6-(2,4,6-trihydroxy-3-methyl-5-acetylbenzyl)-8-cinnamoyl-I,2-chromene]
- ISO-induced relaxation [1]: enhanced the ISO-induced relaxation
- serum OVA specific IgE ([2]; OVA+rottlerin versus OVA, 48 hours after last challenge): similar
- Th2 cytokines IL-4, IL-5 and IL-13 in BALF ([2]; OVA-sensitized animals): significantly reduced
- number of inflammatory leukocytes in BAL ([2]; OVA-sensitized mice): significant decrease
- number of macrophages and eosinophils in BAL ([2]; OVA-sensitized mice): marked reduction
- airway constriction ([2]; OVA-sensitized mice, 25 mg/ml methacholine challenge, rottlerin 5 mg per kg i.p.): decrease in airway constriction
- airway resistance (RL) ([2]; OVA-sensitized mice, MCh 25-50 mg/ml, rottlerin 5 mg per kg i.p.): decrease in their airway resistance
- airway constriction with isoproterenol ([2]; OVA-sensitized mice, isoproterenol i.p. 20, 40 and 100 μg after 50 mg/ml methacholine): significant decrease in airway constriction
- cellular infiltrate in the peribronchial and perivascular regions ([2]; OVA-sensitized/challenged animals, H & E stain): significant reduction
- airway resistance ([2]; PBS-sensitized animals): no effect
- adverse effect, morbidity, mortality ([2]; rottlerin 5 mg per kg i.p., repeated): no significant adverse effect
- β-agonist mediated relaxation of the airway ([3]; Rottlerin (5 μg/g) in combination with Isoproterenol (2.5 μg/g), tail vein): increased β-agonist mediated relaxation of the airway
- time to reduction of AHR ([3]; single I.V. administration): ≤ 5 min
- airway resistance (RL) ([3]; single dose 5 μg/g I.V. 5 minutes before measurement, OVA-sensitized mice): significant decrease in their RL; also recorded: significantly reduced airway resistance
- effect on PKCα activity [4]: virtually no effect
- inhibition [5]: 73%
- pIC50 [6]: 5.00
- mitochondrial uncoupling ([7]; 10 μM): uncouple mitochondria
- ATP levels ([7]; PKC independent): reduce ATP levels
- T lymphocyte proliferation [8]: inhibits
- cerebral vasospasm [9]: inhibited the initial phase of cerebral vasospasm
- histamine in BAL fluid [10]: inhibits an increase of histamine
- fertility rate [11]: reduce the fertility rate
